Data: ChEMBL document CHEMBL1201862, “PubChem BioAssay data set” (2004)
Calls of active or inactive are those of the source.

Legend:
[1] = system: HeLa; test: viability loss in HeLa cells – cell-based, 24 h, cherry-picked samples, cytotoxicity control, dose response (AID 504726); format: functional; conditions: Homo sapiens;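 note: potency for cytotoxicity as loss of luminescence signal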
[2] = biological target: Melanin-concentrating hormone receptor 1 (Homo sapiens, UniProt Q99705); test: Fluorescence-based counterscreen for antagonists of the G-protein coupled receptor 7 (GPR7): cell-based high throughput dose response assay to identify antagonists of the melanin-concentrating hormone receptor 1 (MCHR1).; format: functional
[3] = biological target: T1, Neuropeptides B/W receptor type 1 (Homo sapiens, UniProt P48145); test: Fluorescence-based dose response cell-based high throughput screening assay to identify antagonists of the G-protein coupled receptor 7 (GPR7). [Related pubchem assays: 1952 (Screening assay (GPR7 antagonists).), 1880 (Summary AID.)]; format: functional
T1 sequence (P48145 whole entry): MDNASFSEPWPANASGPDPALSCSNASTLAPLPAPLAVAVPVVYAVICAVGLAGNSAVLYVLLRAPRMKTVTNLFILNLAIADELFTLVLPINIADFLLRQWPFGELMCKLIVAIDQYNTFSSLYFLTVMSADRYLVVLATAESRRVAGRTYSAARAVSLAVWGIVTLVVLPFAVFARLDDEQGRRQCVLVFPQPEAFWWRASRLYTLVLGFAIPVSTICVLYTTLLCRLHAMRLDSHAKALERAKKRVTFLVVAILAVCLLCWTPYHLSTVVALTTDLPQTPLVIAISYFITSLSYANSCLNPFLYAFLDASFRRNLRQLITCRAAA

[4] = biological target: Cytochrome P450 2D6 (Homo sapiens, UniProt P10635); test: qHTS Assay for Inhibitors and Substrates of Cytochrome P450 2D6. [Related pubchem assays: 410 ]; format: ADME; conditions: read-out: Potency
Cytochrome P450 2D6, sequence (P10635 whole entry): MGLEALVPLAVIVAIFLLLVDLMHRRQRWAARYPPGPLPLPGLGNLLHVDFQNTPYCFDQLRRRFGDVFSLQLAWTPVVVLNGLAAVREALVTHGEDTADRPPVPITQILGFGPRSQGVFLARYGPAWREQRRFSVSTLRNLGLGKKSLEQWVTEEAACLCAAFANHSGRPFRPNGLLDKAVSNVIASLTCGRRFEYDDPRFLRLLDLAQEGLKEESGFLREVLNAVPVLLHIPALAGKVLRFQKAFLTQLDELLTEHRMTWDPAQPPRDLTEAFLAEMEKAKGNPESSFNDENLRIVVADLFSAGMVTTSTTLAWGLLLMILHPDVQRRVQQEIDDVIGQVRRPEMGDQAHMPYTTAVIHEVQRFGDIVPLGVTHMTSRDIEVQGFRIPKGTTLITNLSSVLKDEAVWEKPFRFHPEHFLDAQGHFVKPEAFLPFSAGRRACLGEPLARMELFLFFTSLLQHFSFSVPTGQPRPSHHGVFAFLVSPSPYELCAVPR

Melanin-concentrating hormone receptor 1, sequence (Q99705 whole entry): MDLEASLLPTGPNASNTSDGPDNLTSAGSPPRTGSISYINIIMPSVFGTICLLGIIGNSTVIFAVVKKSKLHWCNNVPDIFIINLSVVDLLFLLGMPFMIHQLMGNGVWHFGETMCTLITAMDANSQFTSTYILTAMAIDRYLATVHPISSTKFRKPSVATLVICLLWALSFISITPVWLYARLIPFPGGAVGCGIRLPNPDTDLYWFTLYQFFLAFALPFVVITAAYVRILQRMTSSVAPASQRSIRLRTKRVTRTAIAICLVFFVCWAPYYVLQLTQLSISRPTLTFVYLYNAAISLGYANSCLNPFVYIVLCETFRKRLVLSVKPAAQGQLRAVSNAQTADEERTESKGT

Row | IC50 [2] | IC50 [3] | AC50 [4] | SMILES | AC50 [1]
1 | 158 µM (not active) | > 43.8 µM (not active) |  | N=c1c(C(=O)NCCc2ccccc2)cc2c(=O)n3ccccc3nc2n1CC1CCCO1 (configuration not stated) | 
2 |  |  | 3.16 µM (inconclusive) | C=C(C)C(O)/C=C/c1ccc(Br)cc1 (configuration not stated) | 
3 |  |  | 3.16 µM (inconclusive) | COC(=O)C1C(C)OC(=O)NC1c1ccccc1 (configuration not stated) | 

Continued, compound first:

Row | SMILES | IC50 [2] | IC50 [3] | AC50 [4] | AC50 [1]
4 | O=C(/C=C/c1ccco1)Nc1ccccc1C(=O)Nc1cccc(C(=O)O)c1 |  |  |  | 180 µM (active)
5 | COc1ccc(OC)c(NS(=O)(=O)c2c(C(=O)N3CCCCCC3)c(C)n(C)c2C)c1 | > 43.8 µM (not active) | > 43.8 µM (not active) |  | 
